Measured values: PubChem BioAssay (NCI)
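Following 48 hours of exposure in 96-well plates, responses at five concentrations were used to interpolate endpoints linearly. Abbreviation: GI50, concentration required for 50% inhibition of growth. TGI marks complete inhibition of growth.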

Key:
Experiment in all cases: NCI-60 cell line screen, 48 h
786-0 renal = system: 786-0 renal
A498 renal = system: A498 renal
A549 NSCLC = system: A549 NSCLC
ACHN renal = system: ACHN renal
BT-549 breast = system: BT-549 breast
CAKI-1 renal = system: CAKI-1 renal
CCRF-CEM leukemia = system: CCRF-CEM leukemia
COLO 205 colon = system: COLO 205 colon
DU-145 prostate = system: DU-145 prostate
EKVX NSCLC = system: EKVX NSCLC
HCC-2998 colon = system: HCC-2998 colon
HCT-116 colon = system: HCT-116 colon
HCT-15 colon = system: HCT-15 colon
HL-60(TB) leukemia = system: HL-60(TB) leukemia
HOP-62 NSCLC = system: HOP-62 NSCLC
HOP-92 NSCLC = system: HOP-92 NSCLC
HS 578T breast = system: HS 578T breast
HT29 colon = system: HT29 colon
IGROV1 ovarian = system: IGROV1 ovarian
K-562 leukemia = system: K-562 leukemia
KM12 colon = system: KM12 colon
LOX IMVI melanoma = system: LOX IMVI melanoma
M14 melanoma = system: M14 melanoma
MALME-3M melanoma = system: MALME-3M melanoma
MCF7 breast = system: MCF7 breast
MDA-MB-231 breast = system: MDA-MB-231 breast
MDA-MB-435 = system: MDA-MB-435
MOLT-4 leukemia = system: MOLT-4 leukemia
NCI-H226 lung = system: NCI-H226 lung
NCI-H23 lung = system: NCI-H23 lung
NCI-H460 lung = system: NCI-H460 lung
NCI-H522 lung = system: NCI-H522 lung
NCI/ADR-RES ovarian = system: NCI/ADR-RES ovarian
OVCAR-3 ovarian = system: OVCAR-3 ovarian
OVCAR-4 ovarian = system: OVCAR-4 ovarian
OVCAR-5 ovarian = system: OVCAR-5 ovarian
OVCAR-8 ovarian = system: OVCAR-8 ovarian
PC-3 prostate = system: PC-3 prostate
RPMI-8226 leukemia = system: RPMI-8226 leukemia
SF-268 CNS = system: SF-268 CNS
SF-295 CNS = system: SF-295 CNS
SF-539 CNS = system: SF-539 CNS
SK-MEL-2 melanoma = system: SK-MEL-2 melanoma
SK-MEL-28 melanoma = system: SK-MEL-28 melanoma
SK-MEL-5 melanoma = system: SK-MEL-5 melanoma
SK-OV-3 ovarian = system: SK-OV-3 ovarian
SN12C renal = system: SN12C renal
SNB-19 CNS = system: SNB-19 CNS
SNB-75 CNS = system: SNB-75 CNS
SR leukemia = system: SR leukemia
SW-620 colon = system: SW-620 colon
TK-10 renal = system: TK-10 renal
U251 CNS = system: U251 CNS
UACC-257 melanoma = system: UACC-257 melanoma
UACC-62 melanoma = system: UACC-62 melanoma
UO-31 renal = system: UO-31 renal

CCN1C(=O)N(CC)C2SC(N/N=C/c3ccc(F)cc3)=NC21 (centres undefined)
GI50 (786-0 renal): 628 nM | TGI (786-0 renal): 30100 nM | GI50 (A498 renal): 295 nM | TGI (A498 renal): 860 nM | GI50 (A549 NSCLC): 611 nM | TGI (A549 NSCLC): > 100000 nM | GI50 (ACHN renal): 728 nM | TGI (ACHN renal): > 100000 nM | GI50 (BT-549 breast): 496 nM | TGI (BT-549 breast): 2870 nM | GI50 (CAKI-1 renal): 435 nM | TGI (CAKI-1 renal): > 100000 nM | GI50 (CCRF-CEM leukemia): 413 nM | TGI (CCRF-CEM leukemia): > 100000 nM | GI50 (COLO 205 colon): 308 nM | TGI (COLO 205 colon): 1100 nM | GI50 (DU-145 prostate): 498 nM | TGI (DU-145 prostate): > 100000 nM | GI50 (EKVX NSCLC): 695 nM | TGI (EKVX NSCLC): > 100000 nM | GI50 (HCC-2998 colon): 823 nM | TGI (HCC-2998 colon): > 100000 nM | GI50 (HCT-116 colon): 404 nM | TGI (HCT-116 colon): > 33900 nM | GI50 (HCT-15 colon): 429 nM | TGI (HCT-15 colon): > 100000 nM | GI50 (HL-60(TB) leukemia): 268 nM | TGI (HL-60(TB) leukemia): 927 nM | GI50 (HOP-62 NSCLC): 556 nM | TGI (HOP-62 NSCLC): > 100000 nM | GI50 (HOP-92 NSCLC): 1160 nM | TGI (HOP-92 NSCLC): > 23300 nM | GI50 (HS 578T breast): 363 nM | GI50 (HT29 colon): 354 nM | TGI (HT29 colon): 4460 nM | GI50 (IGROV1 ovarian): 765 nM | TGI (IGROV1 ovarian): > 100000 nM | GI50 (K-562 leukemia): 361 nM | TGI (K-562 leukemia): > 100000 nM | GI50 (KM12 colon): 415 nM | TGI (KM12 colon): > 62200 nM | GI50 (LOX IMVI melanoma): 596 nM | TGI (LOX IMVI melanoma): > 100000 nM | GI50 (M14 melanoma): 296 nM | TGI (M14 melanoma): 14400 nM | GI50 (MALME-3M melanoma): 660 nM | TGI (MALME-3M melanoma): > 100000 nM | GI50 (MCF7 breast): 369 nM | TGI (MCF7 breast): > 100000 nM | GI50 (MDA-MB-231 breast): 955 nM | TGI (MDA-MB-231 breast): > 100000 nM | GI50 (MDA-MB-435): 174 nM | TGI (MDA-MB-435): 408 nM | GI50 (MOLT-4 leukemia): 479 nM | TGI (MOLT-4 leukemia): > 100000 nM | GI50 (NCI-H226 lung): 942 nM | TGI (NCI-H226 lung): > 100000 nM | GI50 (NCI-H23 lung): 539 nM | TGI (NCI-H23 lung): > 100000 nM | GI50 (NCI-H460 lung): 362 nM | GI50 (NCI-H522 lung): 250 nM | TGI (NCI-H522 lung): 762 nM | GI50 (NCI/ADR-RES ovarian): 428 nM | TGI (NCI/ADR-RES ovarian): > 100000 nM | GI50 (OVCAR-3 ovarian): 370 nM | TGI (OVCAR-3 ovarian): 2040 nM | GI50 (OVCAR-4 ovarian): 22400 nM | TGI (OVCAR-4 ovarian): > 100000 nM | GI50 (OVCAR-5 ovarian): 890 nM | TGI (OVCAR-5 ovarian): > 100000 nM | GI50 (OVCAR-8 ovarian): 495 nM | TGI (OVCAR-8 ovarian): > 24000 nM | GI50 (PC-3 prostate): 436 nM | TGI (PC-3 prostate): > 52300 nM | GI50 (RPMI-8226 leukemia): 373 nM | TGI (RPMI-8226 leukemia): > 100000 nM | GI50 (SF-268 CNS): 2620 nM | TGI (SF-268 CNS): > 100000 nM | GI50 (SF-295 CNS): 348 nM | TGI (SF-295 CNS): > 100000 nM | GI50 (SF-539 CNS): 321 nM | TGI (SF-539 CNS): 1430 nM | GI50 (SK-MEL-2 melanoma): 507 nM | TGI (SK-MEL-2 melanoma): > 100000 nM | GI50 (SK-MEL-28 melanoma): > 30000 nM | TGI (SK-MEL-28 melanoma): > 100000 nM | GI50 (SK-MEL-5 melanoma): 601 nM | TGI (SK-MEL-5 melanoma): > 42200 nM | GI50 (SK-OV-3 ovarian): 662 nM | TGI (SK-OV-3 ovarian): > 100000 nM | GI50 (SN12C renal): 617 nM | TGI (SN12C renal): > 100000 nM | GI50 (SNB-19 CNS): 504 nM | TGI (SNB-19 CNS): > 100000 nM | GI50 (SNB-75 CNS): 252 nM | GI50 (SR leukemia): 221 nM | TGI (SR leukemia): > 100000 nM | GI50 (SW-620 colon): 374 nM | TGI (SW-620 colon): > 100000 nM | GI50 (TK-10 renal): 5200 nM | TGI (TK-10 renal): > 100000 nM | GI50 (U251 CNS): 406 nM | TGI (U251 CNS): > 74300 nM | GI50 (UACC-257 melanoma): 1260 nM | TGI (UACC-257 melanoma): > 100000 nM | GI50 (UACC-62 melanoma): 437 nM | TGI (UACC-62 melanoma): > 100000 nM | GI50 (UO-31 renal): 631 nM | TGI (UO-31 renal): > 100000 nM
